Entries after “also recorded” stand apart in the source; their conditions may differ.
Assays:
[1] = biological target: T1, 11β-hydroxysteroid dehydrogenase (11β-OHSD) (Rattus norvegicus, UniProt P16232); assay: Screening of endogenous substances for inhibition of 11β-OHSD (Example III); assay type: biochemical; settings: endogenous substances screened
Excerpt: (§1) Various endogenous substances which bear similar structural resemblances to glycyrrhetinic acid (GA) were screened for inhibitory activity against 11β-hydroxysteroid dehydrogenase (11β-OHSD) and 5β-reductase (5β-R).

5β-reductase (5β-R) = biological target: T2, 5β-reductase (5β-R) (Rattus norvegicus, UniProt P31210); assay: Screening of endogenous substances for inhibition of 5β-reductase (Example III); assay type: biochemical; settings: endogenous substances screened
T2 construct: [3H]-aldosterone reduction with NADPH
T2 sequence (P31210 1-326): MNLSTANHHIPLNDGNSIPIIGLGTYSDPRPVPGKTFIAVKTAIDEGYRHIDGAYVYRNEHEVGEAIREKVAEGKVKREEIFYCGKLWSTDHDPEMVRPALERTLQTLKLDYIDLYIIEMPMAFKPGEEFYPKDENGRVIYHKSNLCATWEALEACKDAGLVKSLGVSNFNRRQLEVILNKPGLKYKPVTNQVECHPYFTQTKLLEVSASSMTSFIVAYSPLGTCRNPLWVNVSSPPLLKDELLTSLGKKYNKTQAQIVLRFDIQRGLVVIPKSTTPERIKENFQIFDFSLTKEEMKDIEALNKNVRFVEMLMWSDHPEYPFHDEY
Excerpt: as §1

adrenalectomized rats = assay: Mineralocorticoid action conferred upon corticosterone in adrenalectomized rats (Example III); assay type: in vivo
Protocol: 3α,5β-THDOC and bile acids were also treated to determine whether, like GA, they could confer mineralocorticoid (MC) actions upon corticosterone.

[2] = biological target: T1, 11β-hydroxysteroid dehydrogenase (11β-OHSD); settings: incubated with enzyme; cited from earlier work
steroid 5β-reductase = settings: incubated with enzyme; cited from earlier work
[3] = system: adrenalectomized male rats; settings: cited from earlier work

T1 sequence (P16232 whole entry): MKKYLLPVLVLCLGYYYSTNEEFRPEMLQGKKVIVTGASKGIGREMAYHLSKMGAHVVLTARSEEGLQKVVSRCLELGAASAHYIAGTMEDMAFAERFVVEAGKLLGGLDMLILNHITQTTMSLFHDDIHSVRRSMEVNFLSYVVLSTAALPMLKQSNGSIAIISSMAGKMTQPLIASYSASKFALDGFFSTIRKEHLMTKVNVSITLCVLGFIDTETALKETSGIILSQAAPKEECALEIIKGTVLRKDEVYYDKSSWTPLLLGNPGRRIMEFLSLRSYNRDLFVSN

Structure (SMILES)	inhibition of 11β-OHSD (potency in words) [1]	inhibition of 5β-R (potency in words) (5β-reductase (5β-R))	further results
C[C@]12CC[C@@H](O)C[C@H]1CC[C@@H]1[C@@H]2CC[C@]2(C)[C@@H](C(=O)CO)CC[C@@H]12 [3α,5β-THDOC, 3α,5β-tetrahydrodeoxycorticosterone]	most potent inhibitor; also recorded: inhibit both 11β-OHSD and 5β-R activity	most potent inhibitor; also recorded: inhibit both 11β-OHSD and 5β-R activity	
C[C@H](CCC(=O)O)[C@H]1CC[C@H]2[C@@H]3[C@H](O)C[C@@H]4C[C@H](O)CC[C@]4(C)[C@H]3C[C@H](O)[C@]12C [CA, cholic acid]	moderate inhibitor	weak inhibitors	
C[C@H](CCC(=O)O)[C@H]1CC[C@H]2[C@@H]3[C@H](O)C[C@@H]4C[C@H](O)CC[C@]4(C)[C@H]3CC[C@]12C [CDCA, chenodeoxycholic acid]	most potent inhibitor; also recorded: inhibit both 11β-OHSD and 5β-R activity	most potent inhibitor; also recorded: inhibit both 11β-OHSD and 5β-R activity	antinatriuresis caused by corticosterone after pretreatment (adrenalectomized rats; adrenalectomized rats pretreated with CDCA, then corticosterone): significant antinatriuresis
C[C@H](CCC(=O)O)[C@H]1CC[C@H]2[C@@H]3CC[C@@H]4C[C@H](O)CC[C@]4(C)[C@H]3C[C@H](O)[C@]12C [DCA, deoxycholic acid]	weak inhibitor	moderate inhibitor	
CC1(C)[C@@H](O)CC[C@]2(C)[C@H]3C(=O)C=C4[C@@H]5C[C@@](C)(C(=O)O)CC[C@]5(C)CC[C@@]4(C)[C@]3(C)CC[C@@H]12 [Glycyrrhetinic Acid]			inhibition of 11β-OHSD [2]: markedly inhibit; inhibition of steroid 5β-reductase (steroid 5β-reductase): markedly inhibit
C[C@H](CCC(=O)O)[C@H]1CC[C@H]2[C@@H]3CC[C@@H]4C[C@H](O)CC[C@]4(C)[C@H]3CC[C@]12C [LCA, lithocholic acid]	potent inhibitor; also recorded: inhibit both 11β-OHSD and 5β-R activity	weak inhibitors; also recorded: inhibit both 11β-OHSD and 5β-R activity	
CCC[C@@H]1CC2=CC(=O)CC[C@]2(C)[C@H]2CC[C@@]3(C)[C@@H](CC[C@@]3(O)CCC(=O)O)[C@H]12 [RU28318, reference compound]			effect of antimineralocorticoid on the CDCA/corticosterone antinatriuresis (adrenalectomized rats; adrenalectomized rats, CDCA + corticosterone): blocked
CC1(C)[C@@H](OC(=O)CCC(=O)O)CC[C@]2(C)[C@H]3C(=O)C=C4[C@@H]5C[C@@](C)(C(=O)O)CC[C@]5(C)CC[C@@]4(C)[C@]3(C)CC[C@@H]12 [carbenoxolone sodium]			effect on Na^+ retaining properties of aldosterone and deoxycorticosterone [3]: amplified the Na^+ retaining properties; effect on glucocorticoids corticosterone and cortisol [3]: display minearlocorticoid like activity

Source: patent publication US6010721A, “Glycyrrhetinic-acid-like factor” (The Miriam Hospital, priority 1996, dated 2000)
